What was measured:
LFA-1 = molecular target: T1, LFA-1 (Mus musculus, UniProt P24063); conditions: oral; cited from earlier work
T1 construct: host or cells: mouse, in vivo

CD56+CD8+ cells = assay: flow cytometric conjugate formation assay of CD56+CD8+ cells and HL60 cells; format: cell-based, human; conditions: chemicals 10 μM 30 min prior to ICAM-2 10 μg/ml 30 min
Method: A) Conjugate formation of CFSE labeled HL60, cells and CD56^+, CD8^+, cells. Conjugate flow cytometric based assay was performed on PBMC treated with indicated chemicals (10, μM, 30, min) prior to treatment with ICAM-2, (10, μg/ml, 30, min). CFSE labeled HL60, cells were incubated at 25:1, E:T ratio for 5, min, and fixed with 1% paraformaldehyde. Cells were then immunolabeled with CD8 and CD56, antibodies, gated for CD8^+, CD56^+, cell populations and percent HL60, fluorescence was made relative to total HL60, cells. B) IL-2, activated PBMC were either treated with ICAM-2, (10 μg/ml, 30, min) or mock-treated (IgG) and stained for active-LFA-1, (mAb24-Alexa633), phospho-p44/42-Ax488, CD8-CY5PE, and CD56-PE.
Target cell lysis was measured by flow cytoemtric based detection of CFSE labeled HL60 cells. HL60 cells were labeled with 1 μg of CFSE (30 min, 37° C.). […] Percent specific lysis was calculated by the following equation: % specific lysis=100-100×(experimental HL60 count/total control HL60 count). HL60 counts were detectable by the CFSE fluorescence. Percent perforin was calculated by the following equation: % perforin=100×[(experimental perforin MFI−isotype mAb MFI)/(total perforin MFI−isotype mAb MFI)]. […] Cell conjugates were determined by flow cytometry as described (Morgan et al., 2001). […]

NIH3T3 = assay: staurosporine induced apoptosis in ICAM-2 transduced NIH3T3 (annexin-V binding, BrdU TUNEL); format: cell-based, murine; conditions: cell type not stated; data not shown
Method: A) Pharmacological inhibitors of PI3K abrogate ICAM-2's anti-apoptotic. ICAM-2, or vector transduced BaF3, cells were treated with staurosporine (1, μM) with (unfilled) or without (filled) the addition of 100, nM wortmannin for 24, hours (left bar graph). Apoptosis was determined by nuclear staining and fluorescence microscopy (left bar graph) and by annexin-V binding assay (right bar graph). The proportion of apoptotic cells in each culture without staurosporine was 8%+/−2. The percentage of apoptotic cells is expressed as the mean (bar)+SD of triplicate cultures. ICAM-2, 1CAM2-AC, or vector transduced NIH3T3, were treated with staurosporine ([…]) in the presence or absence of 10, μM LY294002, for 24, hours (right bar graph). DMSO vehicle served as negative control. The percentage of apoptotic cells is expressed as the mean (bar)+/−SD of triplicate cultures. B) Confocal images of PI3K and AKT localization in ICAM-2, (top) or vector control cells (bottom). C) Confocal images of ezrin and the p85, subunit of PI3K (green) localization in ICAM-2, (top) or vector control cells (bottom).
A) The anti-apoptotic effect of ICAM-2, is both wortmannin and LY294002, sensitive. ICAM-2, or vector transduced BaF3, cells were treated with staurosporine (1, μM) with (unfilled) or without (filled) the addition of 100, nM wortmannin for 24 hours. Apoptosis was determined by nuclear staining and fluorescence microscopy (left bar graph) and by annexin-V binding assay (right bar graph). The proportion of apoptotic cells in each culture without staurosporine was 8%±2. The percentage of apoptotic cells is expressed as the mean (bar)±SD of triplicate cultures. ICAM-2, ICAM2-ΔC, or vector transduced NIH3T3, were treated with staurosporine (1, μM) in the presence or absence of 10, μM LY294002, for 24, hours. DMSO vehicle served as negative control. The percentage of apoptotic cells is expressed as the mean (bar)±SD of triplicate cultures. B) ICAM-2, expressing NIH3T3, cells are sensitive to apoptosis in the presence of PI3K inhibitor LY294002. BrdU TUNEL assay was performed in staurosporine (1, μM) or LY294002, (10, μM) treated ICAM-2, ICAM2-ΔC, and control vector transduced NIH3T3, cells. The percentage of apoptotic cells is expressed as the mean (bar)±SD of triplicate cultures.
Apoptosis was determined either by counting pyknotic nuclei, annexin-V binding by flow cytometry, or TUNEL BrdU staining by flow cytometry as indicated. Apoptosis was induced either by staurosporine (1 μm), treatment with anti-mouse Fas (5 μq/ml Santa Cruz Biotechnology (SCB), […] Fas (5 μg/ml Jo2 Biomed) or anti-human Fas (10 ng/ml CH11 Kamiya Biomedical) as indicated in appropriate experiment, IL-3 withdrawal-(24 hrs) or as indicated. For pyknolic nuclei count, NIH3T3 cells were grown on glass coverslips and assayed for apoptosis. Suspension cells were analyzed by nuclear staining with 25 μM acridine orange/25 μm ethidium bromide or 5 μg/ml Hoechst 33342 (Molecular Probes, Eugene, Oreg.). Apoptosis was identified by the presence of characteristic pyknotic nuclei as described (Jacobson and Raff, 1995). At least 5 individual fields were photographed and counted using a Zeiss axioscope fluorescence microscope. For the survival assay 10^6 NIH3T3 cells were plated in 10 cm dishes and incubated overnight at 37° C. The cells were treated with 1 μM staurosporine for 24 hours. The cells were washed and cultured for 24 hours in complete medium. The cells were trypsinized and viable cells counted following trypan blue staining. Untreated cells were counted at the time of treatment. % survival represents (number of viable cells post-treatment)/(number of viable cells pretreatment). FACS based annexin-V-FITC/PI staining was done as described (PharMingen). TUNEL assay was performed as described by manufacturer of Apoptosis BrdU kit (Promega). […]

NK leukemic cell line YT = conditions: cited from earlier work
Syk = conditions: cited from earlier work
Raf and p44/42 MAPK = assay: phospho-raf and phospho-p44/42 immunoblot kinase inhibitor screen after ICAM-2 stimulus; format: cell-based, human; conditions: compound 10 μM 30 min, then ICAM-2 10 μg/ml 30 min
Method: Serum starved cells were treated with 10, μM of indicated compound 30, minutes prior to being ICAM-2, crosslinked for 30, minutes (10, μg/ml) and assessed for phosphorylated Raf and p44/42, MAPK using phospho specific antibodies in standard immunoblot procedures. Control IgG dissolved in 0.1% DMSO served as negative control. Blots are representative of triplicate experiments. […] Co-immunoprecipitation experiments were performed immunoprecipitating αL and β2, integrin and immunoblotting for the presence of SYK and PYK as a function of a stimulus for 30, minutes as indicated (antibodies used at 10, μg/ml, compounds used at 1, μM and control 19, served as negative control).
A) Phospho-raf and phospho-p44/42, immunoblot inhibition profile by tyrosine kinase inhibitors. […] Cell lysates were immunoblotted for phospho-raf and phospho-p44/42. […] Phospho-specificity was determined by phospho-PykpY402, and phospho-syk (Tyr525/526) antibodies. […] Cells were treated and processed as above. Phospho-specific PKCα/βII, (Thr638) and the following antibodies were used; Pyk2, and Syk were first immunoprecipated, probed with anti-phosphotyrosine antibody (PY20), stripped and subsequently probed with indicated non-phospho specific antibody. Immunoblots are representative of triplicate experiments. […]

Pyk2 = assay: sICAM-2 induced Pyk2 phosphorylation (phospho-tyrosine based ELISA, chemical genetic approach); format: cell-based; conditions: phospho-tyrosine based ELISA
From the text: E) depicts that LFA-1, induced phosphorylation of Pyk2, and Syk is dependent on PKC. We screened for the inhibition of sICAM-2, induced Pyk2, and Syk phosphorylation by chemical inhibitors to tyrosine kinases using a phospho-tyrosine based ELISA. Pyk2, phosphorylation was abrogated in the presence of PKC inhibitors bisindolymaleimide II (BIM II) and staurosporine (STP), in addition to tyrphostin A9, a specific Pyk2, inhibitor. a Pyk2, phosphorylation was also affected by inhibitors of phospholipase Cg (neomycin), inhibitors of Syk (piceatannol), and PKC inhibitor BIM I. Syk phosphorylation was completely abolished by inhibition of Pyk2, PLCg1, and strongly affected by PKC inhibitors. Thus, both Pyk2, and Syk phosphorylations were dependent on PKC activity, while Syk phosphorylation was additionally dependent on PLCg1, and Pyk2, activity. It was not possible to assess specific PKC isozymes by this method.
A chemical genetic approach was undertaken to determine the hierarchy of PKC, Pyk2, PLCg1, and Syk activities in response to sICAM-2, stimulus by verifying phosphorylation status of each kinase in the presence of respective chemical inhibitors. Inhibition of PKC with BIM II abrogated phosphorylation of Pyk2, PLCg1, and Syk. Inhibition of PLCg1, by neomycin abrogated phosphorylation of Syk, with no inhibition observed for Pyk2. […] Thus, the upstream signaling events from LFA-1, to Raf-1, appear to involve PKC/Pyk2/PLCg1/Syk. […] We are currently pursuing these complexes in a separate study.

T1 sequence (P24063 24-1162): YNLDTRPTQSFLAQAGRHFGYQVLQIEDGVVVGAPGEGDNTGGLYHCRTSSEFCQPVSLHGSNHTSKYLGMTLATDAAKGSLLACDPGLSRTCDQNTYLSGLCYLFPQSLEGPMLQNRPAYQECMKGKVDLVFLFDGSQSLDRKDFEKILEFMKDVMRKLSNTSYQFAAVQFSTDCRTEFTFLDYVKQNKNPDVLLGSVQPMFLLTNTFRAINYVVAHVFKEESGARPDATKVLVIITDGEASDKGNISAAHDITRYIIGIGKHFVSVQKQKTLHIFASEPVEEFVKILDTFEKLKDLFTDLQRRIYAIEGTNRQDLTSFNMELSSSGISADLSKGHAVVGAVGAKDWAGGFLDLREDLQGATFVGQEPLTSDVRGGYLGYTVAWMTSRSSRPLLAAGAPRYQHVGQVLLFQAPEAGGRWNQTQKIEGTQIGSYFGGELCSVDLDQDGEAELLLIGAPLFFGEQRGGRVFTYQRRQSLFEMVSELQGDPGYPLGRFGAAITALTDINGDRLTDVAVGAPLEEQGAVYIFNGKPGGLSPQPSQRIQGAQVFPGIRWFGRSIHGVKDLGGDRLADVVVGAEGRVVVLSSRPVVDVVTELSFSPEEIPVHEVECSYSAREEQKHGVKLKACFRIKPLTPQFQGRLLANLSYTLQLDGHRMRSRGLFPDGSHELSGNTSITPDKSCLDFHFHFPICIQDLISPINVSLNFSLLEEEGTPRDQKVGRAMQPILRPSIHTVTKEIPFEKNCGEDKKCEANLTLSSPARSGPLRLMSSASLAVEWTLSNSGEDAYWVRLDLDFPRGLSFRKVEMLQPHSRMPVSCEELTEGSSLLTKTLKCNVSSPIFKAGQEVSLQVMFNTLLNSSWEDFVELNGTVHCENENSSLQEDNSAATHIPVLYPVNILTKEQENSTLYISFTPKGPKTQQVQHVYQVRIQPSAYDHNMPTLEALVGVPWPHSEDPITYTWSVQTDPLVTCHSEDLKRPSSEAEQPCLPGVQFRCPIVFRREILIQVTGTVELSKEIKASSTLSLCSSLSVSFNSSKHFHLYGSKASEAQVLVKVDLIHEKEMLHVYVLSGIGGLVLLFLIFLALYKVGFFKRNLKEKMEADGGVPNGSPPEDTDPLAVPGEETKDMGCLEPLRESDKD
T1 sequence (P11835 24-771 partner): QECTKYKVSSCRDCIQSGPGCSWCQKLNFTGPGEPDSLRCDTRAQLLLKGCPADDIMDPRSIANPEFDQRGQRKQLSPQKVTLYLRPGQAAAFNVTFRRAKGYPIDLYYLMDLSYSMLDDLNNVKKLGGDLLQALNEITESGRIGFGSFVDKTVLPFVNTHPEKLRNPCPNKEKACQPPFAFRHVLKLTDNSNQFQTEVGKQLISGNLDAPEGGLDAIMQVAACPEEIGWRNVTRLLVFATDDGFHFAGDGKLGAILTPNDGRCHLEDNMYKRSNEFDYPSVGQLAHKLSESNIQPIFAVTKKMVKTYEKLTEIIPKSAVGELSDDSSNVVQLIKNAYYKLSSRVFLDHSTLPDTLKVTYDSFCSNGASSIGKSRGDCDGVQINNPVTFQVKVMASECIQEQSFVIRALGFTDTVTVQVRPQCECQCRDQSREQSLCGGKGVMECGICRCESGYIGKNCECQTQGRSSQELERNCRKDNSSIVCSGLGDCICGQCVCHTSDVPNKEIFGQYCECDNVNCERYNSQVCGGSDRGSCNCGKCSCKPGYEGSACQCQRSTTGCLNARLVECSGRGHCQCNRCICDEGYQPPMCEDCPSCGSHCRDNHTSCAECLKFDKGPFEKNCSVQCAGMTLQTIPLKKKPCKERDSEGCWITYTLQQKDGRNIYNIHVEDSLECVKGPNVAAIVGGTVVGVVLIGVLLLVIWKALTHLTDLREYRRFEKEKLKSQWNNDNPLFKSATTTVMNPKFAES

## CC[C@H](C)C(=O)O[C@H]1C[C@@H](C)C=C2C=C[C@H](C)[C@H](CC[C@H]3C[C@@H](O)CC(=O)N3Cc3ccc4c(CO)c(OC)ccc4c3)[C@H]21 [LFA703]
LFA-1
  inflammatory response: suppressed the inflammatory response

## COc1cccc(-c2cc(=O)c3ccccc3o2)c1N [PD98059]
CD56+CD8+ cells
  effector-target (E:T) conjugate formation: did not
NIH3T3
  effect on ICAM-2 anti-apoptotic effect, other kinase inhibitors: not abrogated
NK leukemic cell line YT
  perforin redistribution: inhibits perforin redistribution to the site of effector-target cell contact

## Oc1cc(O)cc(/C=C/c2ccc(O)c(O)c2)c1 [piceatannol]
Syk
  natural cytotoxicity: inhibits natural cytotoxicity

## CC(C)(C)c1cc(C=C(C#N)C#N)cc(C(C)(C)C)c1O [tyrphostin A9]
Raf and p44/42 MAPK
  effect on ICAM-2 induced activation of Raf and p44/42 MAPK: abrogated
Pyk2
  sICAM-2 induced Pyk2 phosphorylation: abrogated

Reference: patent publication US8962263B2, “Methods and compositions for detecting the activation state of multiple proteins in single cells” (The Board of Trustees of the Leland Stanford Junior …, priority 2001, dated 2015)
